Laboratory results reported in patent US10357481B2 (MERCK SHARP & DOHME CORP., priority 2015, dated 2019).

Molecular target: T1, human PDE2A1 (Homo sapiens, UniProt O00408)
T1 construct: GST; purchased BPS Bioscience (San Diego, Calif.) 60020; host or cells: insect cells
Test: IMAP FP PDE selectivity panel, human PDE2A1
Assay type: biochemical
Conditions: Lab B; read-out: Human PDE2 Ki (nM) Lab B
Protocol: Selectivity for PDE2, as compared to other PDE families, was assessed using the IMAP® technology. Human PDE10A2 enzyme was prepared from cytosolic fractions of transiently transfected HEK cells.
Assays for PDE 1 through 11 were performed in parallel at room temperature in 384-well microtiter plates with an incubation volume of 20.2 μL. Solutions of test compounds were prepared in DMSO and serially diluted with DMSO to yield 30 μL of each of ten solutions differing by 3-fold in concentration, at 32 serial dilutions per plate. […] A Labcyte POD 810 (Labcyte, Sunnyvale, Calif.) was used to dispense 200 nL from each well of the titration plate to make eleven copies of the assay plate for each titration, one copy for each PDE enzyme. A solution of each enzyme (dilution from aliquots, sufficient to produce 20% substrate conversion) and a separate solution of FAM-labeled cAMP or FAM-labeled cGMP from Molecular Devices (Sunnyvale, Calif., product # R7506 or cGMP#R7508), at a final concentration of 50 nM were made in the assay buffer (10 mM Tris HCl, pH 7.2, 10 mM MgCl2, 0.05% NaN3 0.01% Tween-20, and 1 mM DTT). Note that the substrate for PDE2 is 50 nM FAM cAMP containing 1000 nM of cGMP. The enzyme and the substrate were then added to the assay plates in two consecutive additions of 10 μL and then shaken to mix. The reaction was allowed to proceed at room temperature for 60 minutes. A binding solution was then made from the kit components, comprised of 80% Solution A, 20% Solution B and binding reagent at a volume of 1/600 the total binding solution. The enzymatic reaction was stopped by addition of 60 μL of the binding solution to each well of the assay plate. The plates were sealed and shaken for 10 seconds. The plates were incubated at room temperature for one hour, then the parallel and perpendicular fluorescence was measured using a Tecan Genios Pro plate reader (Tecan, Switzerland). […] The intrinsic PDE2 inhibitory activity of a compound which may be used in accordance with the present invention may be determined by these assays.

T1 sequence (O00408 1-920 isoform O00408-2): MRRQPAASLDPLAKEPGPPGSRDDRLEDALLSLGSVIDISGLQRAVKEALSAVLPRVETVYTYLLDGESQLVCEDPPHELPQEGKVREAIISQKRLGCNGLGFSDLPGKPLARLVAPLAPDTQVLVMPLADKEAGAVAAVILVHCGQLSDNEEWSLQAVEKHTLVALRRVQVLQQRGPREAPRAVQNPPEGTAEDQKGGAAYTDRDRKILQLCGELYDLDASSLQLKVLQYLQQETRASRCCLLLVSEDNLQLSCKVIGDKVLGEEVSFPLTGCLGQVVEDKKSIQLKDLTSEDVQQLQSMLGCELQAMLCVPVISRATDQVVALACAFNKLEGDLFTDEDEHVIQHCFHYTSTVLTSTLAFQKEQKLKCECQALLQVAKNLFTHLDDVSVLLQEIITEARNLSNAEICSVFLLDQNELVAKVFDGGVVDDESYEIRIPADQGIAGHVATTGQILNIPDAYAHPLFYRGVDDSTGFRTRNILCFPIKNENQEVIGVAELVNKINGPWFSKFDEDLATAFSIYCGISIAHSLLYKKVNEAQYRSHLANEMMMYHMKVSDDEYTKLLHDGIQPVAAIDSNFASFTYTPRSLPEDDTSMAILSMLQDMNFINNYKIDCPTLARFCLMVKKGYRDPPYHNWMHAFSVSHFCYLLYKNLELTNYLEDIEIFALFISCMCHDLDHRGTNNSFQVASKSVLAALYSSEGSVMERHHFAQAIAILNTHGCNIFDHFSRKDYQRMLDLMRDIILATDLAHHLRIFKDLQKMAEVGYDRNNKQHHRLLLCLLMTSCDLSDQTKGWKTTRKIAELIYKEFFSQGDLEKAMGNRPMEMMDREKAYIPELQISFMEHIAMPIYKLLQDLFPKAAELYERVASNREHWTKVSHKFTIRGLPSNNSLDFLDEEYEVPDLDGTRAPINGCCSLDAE

Question: For `Cc1cc(NC(c2ccc(OC(F)(F)F)c(F)c2)C(C)(C)O)n2nc(C)nc2n1` (single isomer, unassigned) [Example 133, (1R or S)-1-[(2,5-Dimethyl[1,2,4]triazolo[1,5-a]pyrimidin-7-yl)amino]-1-[3-fluoro-4-(tri-fluoromethoxy)phenyl]-2-methylpropan-2-ol], which Ki is on record?
Answer: 18 nM

Question: How did the Ki turn out when `Cc1cc(NC(c2ccc(OC(F)(F)F)cc2F)C(C)(C)O)n2nc(C)nc2n1` (single isomer, unassigned) [Example 134, (1S or R)-1-[(2,5-Dimethyl[1,2,4]triazolo[1,5-a]pyrimidin-7-yl)amino]-1-[2-fluoro-4-(tri-fluoromethoxy)phenyl]-2-methylpropan-2-ol] was run?
Answer: > 2960 nM

Question: For `Cc1cc(NC(c2ccc(OC(F)(F)F)cc2F)C(C)(C)O)n2nc(C)nc2n1` (single isomer, unassigned) [Example 135, (1R or S)-1-[(2,5-Dimethyl[1,2,4]triazolo[1,5-a]pyrimidin-7-yl)amino]-1-[2-fluoro-4-(tri-fluoromethoxy)phenyl]-2-methylpropan-2-ol], which Ki is on record?
Answer: 30 nM

Question: `CC(C)c1cc(NC(c2ccc(OC(F)(F)F)cc2F)C(C)(C)O)n2ncnc2n1` (single isomer, unassigned) [Example 136, (1S or R)-1-[2-Fluoro-4-(trifluoro-methoxy)phenyl]-2-methyl-1-{[5-(1-methylethyl) [1,2,4]triazolo [1,5-a]pyrimidin-7-yl]amino} propan-2-ol] was tested. Which Ki did it give?
Answer: > 2960 nM

Question: For `CC(C)c1cc(NC(c2ccc(OC(F)(F)F)cc2F)C(C)(C)O)n2ncnc2n1` (single isomer, unassigned) [Example 137, (1R or S)-1-[2-Fluoro-4-(trifluoro-methoxy)phenyl]-2-methyl-1-{[5-(1-methylethyl) [1,2,4]triazolo [1,5-a]pyrimidin-7-yl]amino} propan-2-ol], which Ki is on record?
Answer: 436 nM

Question: How did the Ki turn out when `CC(C)c1cc(NC(c2ccc(OC(F)(F)F)c(F)c2)C(C)(C)O)n2ncnc2n1` (single isomer, unassigned) [Example 138, (1S or R)-1-[3-Fluoro-4-(trifluoro-methoxy)phenyl]-2-methyl-1-{[5-(1-methylethyl) [1,2,4]triazolo [1,5-a]pyrimidin-7-yl]amino} propan-2-ol] was run?
Answer: ~1570 nM

Question: `CC(C)c1cc(NC(c2ccc(OC(F)(F)F)c(F)c2)C(C)(C)O)n2ncnc2n1` (single isomer, unassigned) [Example 139, (1R or S)-1-[3-Fluoro-4-(trifluoro-methoxy)phenyl]-2-methyl-1-{[5-(1-methylethyl) [1,2,4]triazolo [1,5-a]pyrimidin-7-yl]amino} propan-2-ol] was tested. Which Ki did it give?
Answer: > 2960 nM

Question: With `CC(C)(O)C(Nc1cc(C2CC2)nc2ncnn12)c1ccc(OC(F)(F)F)c(F)c1` (single isomer, unassigned) [Example 140, (1S or R)-1-[(5- Cyclopropyl [1,2,4]triazolo [1,5-a]pyrimidin-7-yl)amino]-1-[3-fluoro-4-(trifluoro-methoxy)phenyl]-2-methylpropan-2-ol] as the compound, how does the Ki read?
Answer: > 2960 nM

Question: For `CC(C)(O)C(Nc1cc(C2CC2)nc2ncnn12)c1ccc(OC(F)(F)F)c(F)c1` (single isomer, unassigned) [Example 141, (1R or S)-1-[(5- Cyclopropyl [1,2,4]triazolo [1,5-a]pyrimidin-7-yl)amino]-1-[3-fluoro-4-(trifluoro-methoxy)phenyl]-2-methylpropan-2-ol], which Ki is on record?
Answer: 877 nM

Question: How did the Ki turn out when `CC(C)(O)C(Nc1cc(C2CC2)nc2ncnn12)c1ccc(OC(F)(F)F)cc1F` (single isomer, unassigned) [Example 142, (1S or R)-1-[(5- Cyclopropyl [1,2,4]triazolo [1,5-a]pyrimidin-7-yl)amino]-1-[2-fluoro-4-(trifluoro-methoxy)phenyl]-2-methylpropan-2-ol] was run?
Answer: > 2960 nM

Question: How did the Ki turn out when `CC(C)(O)C(Nc1cc(C2CC2)nc2ncnn12)c1ccc(OC(F)(F)F)cc1F` (single isomer, unassigned) [Example 143, (1R or S)-1-[(5- Cyclopropyl [1,2,4]triazolo [1,5-a]pyrimidin-7-yl)amino)-1-[2-fluoro-4-(trifluoro-methoxy)phenyl]-2-methylpropan-2-ol] was run?
Answer: 97 nM

Question: How did the Ki turn out when `CC(C)(O)C(Nc1cc(C2CC2)nc2ncnn12)c1ccc(S(F)(F)(F)(F)F)cc1` (single isomer, unassigned) [Example 144, (1S or R)-1-[(5- Cyclopropyl [1,2,4]triazolo [1,5-a]pyrimidin-7-yl)amino]-2-methyl-1-[4-(pentafluoro-λ^6-sulfanyl)phenyl]propan-2-ol] was run?
Answer: > 2960 nM

Question: Which Ki does the source give for `CC(C)(O)C(Nc1cc(C2CC2)nc2ncnn12)c1ccc(S(F)(F)(F)(F)F)cc1` (single isomer, unassigned) [Example 145, (1R or S)-1-[(5- Cyclopropyl [1,2,4]triazolo [1,5-a]pyrimidin-7-yl)amino]-2-methyl-1-[4-(pentafluoro-λ^6-sulfanyl)phenyl]propan-2-ol] here?
Answer: 25 nM

Question: For `CC(C)(C)c1cc(NC(c2ccc(OC(F)(F)F)c(F)c2)C(C)(C)O)n2ncnc2n1` (single isomer, unassigned) [Example 146, (1S or R)-1-[(5-tert-Butyl[1,2,4]triazolo[1,5-a]pyrimidin-7-yl)amino]-1-[3-fluoro-4-(trifluoro-methoxy)phenyl]-2-methylpropan-2-ol], which Ki is on record?
Answer: > 2960 nM

Question: For `CC(C)(C)c1cc(NC(c2ccc(OC(F)(F)F)c(F)c2)C(C)(C)O)n2ncnc2n1` (single isomer, unassigned) [Example 147, (1R or S)-1-[(5-tert-Butyl[1,2,4]triazolo[1,5-a]pyrimidin-7-yl)amino]-1-[3-fluoro-4-(trifluoro-methoxy)phenyl]-2-methylpropan-2-ol], which Ki is on record?
Answer: > 2960 nM

Question: `CC(C)(C)c1cc(NC(c2ccc(OC(F)(F)F)cc2F)C(C)(C)O)n2ncnc2n1` (single isomer, unassigned) [Example 148, (1S or R)-1-[(5-tert-butyl[1,2,4]triazolo[1,5-a]pyrimidin-7-yl)amino]-1-[2-fluoro-4-(trifluoro-methoxy)phenyl]-2-methylpropan-2-ol] was tested. Which Ki did it give?
Answer: > 2960 nM

Question: Which Ki does the source give for `CC(C)(C)c1cc(NC(c2ccc(OC(F)(F)F)cc2F)C(C)(C)O)n2ncnc2n1` (single isomer, unassigned) [Example 149, (1R or S)-1-[(5-tert-butyl[1,2,4]triazolo[1,5-a]pyrimidin-7-yl)amino]-1-[2-fluoro-4-(trifluoro-methoxy)phenyl]-2-methylpropan-2-ol] here?
Answer: > 2960 nM

Question: Which Ki does the source give for `CC(C)(C)c1cc(NC(c2ccc(S(F)(F)(F)(F)F)cc2)C(C)(C)O)n2ncnc2n1` (single isomer, unassigned) [Example 150, (1S or R)-1-[(5-tert-Butyl[1,2,4]triazolo[1,5-a]pyrimidin-7-yl)amino]-2-methyl-1-[4-(pentafluoro-λ^6-sulfanyl)phenyl] propan-2-ol] here?
Answer: > 2960 nM

Question: `CC(C)(C)c1cc(NC(c2ccc(S(F)(F)(F)(F)F)cc2)C(C)(C)O)n2ncnc2n1` (single isomer, unassigned) [Example 151, (1R or S)-1-[(5-tert-Butyl[1,2,4]triazolol[1,5-a]pyrimidin-7-yl)amino]-2-methyl-1-[4-(pentafluoro-λ^6-sulfanyl)phenyl] propan-2-ol] was tested. Which Ki did it give?
Answer: > 2960 nM

Question: Which Ki does the source give for `CC(C)(O)C(Nc1cc(C(F)(F)F)nc2ncnn12)c1ccc(C(F)(F)F)cc1Cl` (single isomer, unassigned) [Example 159, (1S or R)-1-[2-Chloro-4-(trifluoromethyl)phenyl]-2-methyl-1-{[5-(trifluoromethyl)[1,2,4]triazolo[1,5-a]pyrimidin-7-yl]amino}propan-2-ol] here?
Answer: > 2960 nM

Question: Which Ki does the source give for `CC(C)(O)C(Nc1cc(C(F)(F)F)nc2ncnn12)c1ccc(C(F)(F)F)cc1Cl` (single isomer, unassigned) [Example 160, (1R or S)-1-[2-chloro-4-(trifluoromethyl)phenyl]-2-methyl-1-{[5-(trifluoromethyl)[1,2,4]triazolo[1,5-a]pyrimidin-7-yl]amino}propan-2-ol] here?
Answer: 81 nM

Question: For `CC(C)(C)c1ccc(C(Nc2cc(C(F)(F)F)nc3ncnn23)C(C)(C)O)cc1` (single isomer, unassigned) [Example 161, (1S or S)-1-(4-tert-Butylphenyl)-2-methyl-1-{[5-(trifluoromethyl) [1,2,4]triazolo [1,5-a]pyrimidin-7-yl]amino} propan-2-ol], which Ki is on record?
Answer: 19 nM

Question: For `CC(C)(C)c1ccc(C(Nc2cc(C(F)(F)F)nc3ncnn23)C(C)(C)O)cc1` (single isomer, unassigned) [Example 162, (1R or S)-1-(4-tert-Butylphenyl)-2-methyl-1-{[5-(trifluoromethyl) [1,2,4]triazolo [1,5-a]pyrimidin-7-yl]amino} propan-2-ol], which Ki is on record?
Answer: ~2050 nM
